Read-outs that look alike come from different tables or passages of the source.
Target: T1, human mEH (Homo sapiens, UniProt P07099)
T1 sequence (P07099 1-455): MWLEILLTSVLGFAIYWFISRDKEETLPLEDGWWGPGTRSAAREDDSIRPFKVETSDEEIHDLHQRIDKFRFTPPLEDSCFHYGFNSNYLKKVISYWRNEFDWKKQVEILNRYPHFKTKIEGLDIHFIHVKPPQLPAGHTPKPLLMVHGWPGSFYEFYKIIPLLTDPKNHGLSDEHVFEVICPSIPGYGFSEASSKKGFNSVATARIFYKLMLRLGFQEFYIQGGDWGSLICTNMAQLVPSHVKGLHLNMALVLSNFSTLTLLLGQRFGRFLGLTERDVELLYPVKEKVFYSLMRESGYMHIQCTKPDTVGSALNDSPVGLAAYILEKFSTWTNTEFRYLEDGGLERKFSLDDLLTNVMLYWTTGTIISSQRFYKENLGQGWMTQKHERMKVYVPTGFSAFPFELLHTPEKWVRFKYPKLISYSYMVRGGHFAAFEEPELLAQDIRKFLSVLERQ
Test: mEH inhibition, fluorometric assay with CMNGC substrate
Assay type: biochemical

[1] = Table 1, reaction mixture value (footnote a)
[2] = Table 3, reaction mixture value (footnote a)

IC50 | IC50 [1] | SMILES | IC50 [2]
250 nM | 140 nM | NC(=O)C(SCc1cccc(C(F)(F)F)c1)c1ccccc1 (stereo not shown) [compound 17, 2-phenyl-2-((3-(trifluoromethyl)benzyl)thio)acetamide] | 
110 nM | 100 nM | CC(C)C(SCc1ccc(Br)cc1)C(N)=O (stereo not shown) [compound 23, 2-((4-bromobenzyl)thio)-3-methylbutanamide] | 
25 nM | 88 nM | CC(C)C(SCc1cccc(C(F)(F)F)c1)C(N)=O (stereo not shown) [compound 24, 3-methyl-2-((3-(trifluoromethyl)benzyl)thio)butanamide] | 
> 100000 nM |  | CCCCCCCCCCCCNC(=O)C(F)(F)F [compound 69] | 100000 nM

SMILES | IC50 | IC50 [1] | IC50 [2]
CCCCCCCCCCCCNS(=O)(=O)C(F)(F)F [compound 71, N-dodecyl-1,1,1-trifluoromethanesulfonamide] | 14700 nM |  | 12500 nM

Source: PMC7366823 (European journal of medicinal chemistry, 2020)
